Reference: patent US20250170137A1, “Compositions for preventing or treating heart failure (HF)” (CHONG KUN DANG PHARMACEUTICAL CORP., priority 2022, published 2025)

Experiments:
[1] = test system: acetyl tubulin in H9c2 cells; experiment: Effect on acetyl tubulin in H9c2 cells (western blot); assay type: cell-based, Rat; conditions: treated for each concentration, four hours at 37° C., western blot vs GAPDH (FIGS. 1 and 2)
Description: H9c2 (2.0×10^5 cells/well, Rat, heart, myoblast) cells were seeded in a six-well plate and treated with drugs (compounds 43, 295, 296, 40, 239, and 285) for each concentration. In four hours later at 37° C., proteins were extracted with lysis buffer and quantified by Bradford method. […] of proteins were dissolved in sample buffer, electrophoresed on 4-12% gradient gel, transferred to a nitrocellulose membrane for seven minutes, and blocked in 3% BSA solution for one hour. Anti-acetyl tubulin (1:1,000) and GAPDH (1:2,000) were added to a 3% BSA solution, after which the membrane was immersed therein and reacted at 4° C. for 10 hours, and then washed three times with 1×TBST for 10 minutes each. IgG-HRP antibody (1:5,000) was added to 5% BSA, after which the membrane was immersed therein and reacted at room temperature for one hour, and then washed three times with 1×TBST for 10 minutes each.

[2] = test system: isolated heart of normal rabbits; experiment: Langendorff evaluation of heart safety (Q-T interval of ECG); set-up: species or system Rabbit; conditions: for Q-T interval: normal rabbit heart, ECG 30 minutes later, n = 6, mean ± standard error; for effect on QT interval compared to normal ECG (in words): dofetilide 0.3 μM and 1 μM, compound 43 1 μM (FIGS. 5 and 6)
Description: (§1) The male rabbits were anesthetized by breathing, and the hearts were removed therefrom. After removing the connective tissues, the hearts were perfused with 37° C. physiological solution (modified KrebsHenseleit bicarbonate buffer; composition: 116 mM/L NaCl, 4.7 mM/L KCl, 1.1 mM/L MgSO4, 1.17 mM/L KH2PO4, 24.9 mM/L NaHCO3, 2.52 mM/L CaCl2), 8.32 mM/L glucose) saturated with 95% O2/5% CO2 under constant pressure perfusion, and electrodes were connected at the atrium and ventricle so as to confirm a stabilization state by measuring an electrocardiogram for one hour.
After confirming the stabilization state of the heart through the electrocardiogram for one hour, the compound was administered to the physiological solution, and the electrocardiogram was measured in 30 minutes later so as to analyze the Q-T interval.
Using dofetilide as a control drug, the effect of the compound according to the present disclosure (compound 43: compound of Synthesis Example 1) on the QT interval of ECG was confirmed in normal rabbits.
Rabbits were prepared under the same conditions as in 1) and divided into a normal group, a dofetilide-treated group, and a compound 43-treated group, after which the hearts of the rabbits were extracted according to the Langendorff experimental method in 2-2), so as to analyze the Q-T interval according to 2-3), and the results thereof are shown in FIGS. 5 and 6 and in Tables 2 and 3 below. In above FIGS. 5 and 6 and Tables 2 and 3, the Control may refer to a normal group, and all data values in Tables 2 and 3 are expressed as mean standard error.

[3] = test system: acetylated tubulin in atrial and ventricular tissues; experiment: Acetylated tubulin in atrial and ventricular tissues in heart damage mimicking conditions (Tachycardia pacing); set-up: species or system Rabbit; conditions: compound in physiological solution, western blot, compared to vehicle (FIGS. 10 and 11)
Description: Male rabbits were prepared in the same manner as in Example 1, and the rabbits were divided into a normal group (Sham), a drug-untreated group (vehicle), and a drug-treated group (Compound).
After that, the heart was evaluated by the Langendorff experimental method as in 2-1) of 2) in Example 2. For the drug-treated group, the heart was treated with the drug by administering compound 43 (compound according to Synthesis Example 1) to physiological solution as in 2-2) of 2) in Example 2.
Then, the atria and the ventricles were separated, and then proteins were isolated from each tissue. The expression of acetylated tubulin was analyzed for each protein through western blot, so as to compare the expression levels between groups, and the results thereof are shown in FIGS. 10 and 11. * may mean P<0.05, ** may refer to P<0.01, and *** may represent less than P<0.001.

isolated rabbit heart = experiment: Langendorff evaluation of ventricular functions in heart damage mimicking conditions (Tachycardia pacing)
Source text: The Langendorff test method was used to evaluate the therapeutic effect of the compound on heart damage. The Langendorff test method is known as a test method that helps to determine the direct effect of the compound on the heart in terms of efficacy and safety. In particular, the method is easy to measure actual cardiac contractility and heart rates by removing peripheral hemodynamic variables that may extracardially interfere in experimental animals, and has the advantage of being able to intensively investigate a correlation between chemical structure and pharmacological action using various doses of the compound.
as §1
After confirming the stabilization state of the heart for one hour through an electrocardiogram, a heart damage stimulation with 50 Hz tachycardia pacing was applied for 30 minutes. After measuring the electrocardiogram of the atrium and ventricle, a test target compound (compound 43: the compound of […]) was administered to physiological solution, and the electrocardiogram was measured in one hour later. In order to check whether a drug effect is maintained even after the compound is removed from the physiological solution, the physiological solution containing the compound, in which the rabbit heart was immersed, was washed out, and the physiological solution without the compound was administered, so as to measure the electrocardiogram in one hour later.
The effect of the compound on improving ventricular functions was analyzed in ex vivo heart damage mimicking conditions (Tachycardia pacing), and the results thereof are shown in FIGS. 3 and 4 and Table 1. In above FIG. 4, ** on the graph may refer to P<0.01 when compared with the normal group(Sham), and ## may mean P<0.01 when compared with Tachycardia pacing (Comparative group, vehicle).

[4] = test system: iPSC-CM myocardial cells derived from patients with dilated cardiomyopathy (DCMP) heart failure; experiment: Ca2+ transient activity in DCMP iPSC-CM accompanied by TPM1 mutation; assay type: cell-based, human; conditions: 0.1-3 μM for 24 hours, 3 Hz stimulation 24 hours, Fluo-4 (FIG. 9)
Description: In order to confirm the effect of the compound according to the present disclosure on preventing or treating heart failure disease, Ca^2+ transients in iPSC-CM myocardial cells derived from patients with dilated cardiomyopathy (DCMP) heart failure were analyzed.
Myocardial cells derived from patients with heart failure were treated with compound 43 (Synthesis Example 1) for each concentration for 24 hours. After that, 3 Hz stimulation was given to both iPSC-CM myocardial cells derived from normal people (normal group, Normal) and iPSC-CM myocardial cells derived from patients with dilated cardiomyopathy (DCMP) heart failure for 24 hours in heart damage mimicking conditions (Tachycardia pacing). After each group was treated with Fluo-4 (AM, cell permeant-Thermo Fisher Scientific), a cell-permeable calcium dye, Ca^2+ images were taken in real time with a confocal microscope, so as to compare and analyze Ca^2+ transients between groups. Then, the results of the cells obtained from normal people are shown in FIG. 8, while the results of the cells obtained from patients with DCMP heart failure are shown in FIG. 9. Normal in above FIG. 8 may refer to myocardial cells not treated with Tachycardia pacing, and 0, 0.1, 1 and 3 in FIGS. 8 and 9 may represent the concentrations of compound 43 (compound of Synthesis Example 1) in cells treated with Tachycardia pacing. […]

[5] = test system: beagle dogs with induced heart disease; experiment: Anti-fibrotic activity in tachycardia pacing heart disease model (western blot of cardiac tissue); assay type: in vivo, beagle dog; conditions: 1 mg/kg capsule, Bid, P.O.; tachycardia pacing 400 bpm; compared to group not dosed (FIG. 7)
Description: For the introduction of anesthetic to the beagle dogs (male, 11 months old), pentobarbital (25 mg/kg) was intravenously administered thereto, and anesthesia was maintained through Isoflurane. A pacemaker's in vivo implantable electrode (bipolar pacing lead, Medtronic, IRE) was placed in the right atrial appendage by using C-arm (ARCADIS Varic, SIEMENS Co.) equipment and vascular contrast media, and then it was checked if the same was correctly inserted through a contrast image, and then the pacemaker's lead was fixed in the right atrial appendage. After stabilization for one week after surgery, the pacemaker was operated at 400 bpm to confirm normal induction by electrocardiography, and then tachycardia pacing was induced. Hemodynamic parameters for each group were measured. […]
In order to confirm the effect of the compound according to the present disclosure on preventing or treating heart failure disease, the expression of α-SMA and TGF-β, which are directly related to fibrosis in cardiac tissues, was analyzed. […] The expression of α-SMA and TGF-β was analyzed for each protein through western blot, so as to compare the degree of cardiac fibrosis between groups, and the results thereof are shown in FIG. 7.

## O=C(N1CCS(=O)(=O)CC1)N(Cc1ccc(-c2nnc(C(F)F)o2)cc1F)c1ccccc1 [Compound 40, N-(4-(5-(difluoromethyl)-1,3,4-oxadiazol-2-yl)-2-fluorobenzyl)-N-phenylthiomorpholine-4-carboxamide 1,1-dioxide]
[1]
  concentration of acetyl tubulin in H9c2 cells: increase the concentration of acetyl tubulin in H9c2 cells in a concentration-correlated manner

## O=C(N1CCS(=O)(=O)CC1)N(Cc1ccc(-c2nnc(C(F)F)o2)cn1)c1cccc(Cl)c1 [Compound 239, N-(3-chlorophenyl)-N-((5-(5-(difluoromethyl)-1,3,4-oxadiazol-2-yl)pyridin-2-yl)methyl)thiomorpholine-4-carboxamide 1,1-dioxide]
[1]
  concentration of acetyl tubulin in H9c2 cells: increase the concentration of acetyl tubulin in H9c2 cells in a concentration-correlated manner

## O=C(N1CCS(=O)(=O)CC1)N(Cc1ccc(-c2nnc(C(F)F)o2)cc1F)c1ccc(F)cc1 [Compound 285, N-(4-(5-(difluoromethyl)-1,3,4-oxadiazol-2-yl)-2-fluorobenzyl)-N-(4-fluorophenyl)thiomorpholine-4-carboxamide 1,1-dioxide]
[1]
  concentration of acetyl tubulin in H9c2 cells: increase the concentration of acetyl tubulin in H9c2 cells in a concentration-correlated manner

## O=C(N1CCS(=O)(=O)CC1)N(Cc1ccc(-c2nnc(C(F)F)o2)cn1)c1ccc(F)cc1 [Compound 295, N-((5-(5-(difluoromethyl)-1,3,4-oxadiazol-2-yl)pyridin-2-yl)methyl)-N-(4-fluorophenyl)thiomorpholine-4-carboxamide 1,1-dioxide]
[1]
  concentration of acetyl tubulin in H9c2 cells: increase the concentration of acetyl tubulin in H9c2 cells in a concentration-correlated manner

## O=C(N1CCS(=O)(=O)CC1)N(Cc1ccc(-c2nnc(C(F)F)o2)cn1)c1cccc(F)c1 [Compound 296, N-((5-(5-(difluoromethyl)-1,3,4-oxadiazol-2-yl)pyridin-2-yl)methyl)-N-(3-fluorophenyl)thiomorpholine-4-carboxamide 1,1-dioxide]
[1]
  concentration of acetyl tubulin in H9c2 cells: increase the concentration of acetyl tubulin in H9c2 cells in a concentration-correlated manner

## CN(CCOc1ccc(NS(C)(=O)=O)cc1)CCc1ccc(NS(C)(=O)=O)cc1 [Dofetilide, dofetilide]
[2]; 0.3 μM
  Q-T interval: 199.2 ± 17.8 ms
[2]; 1 μM
  Q-T interval: 205.4 ± 26.3 ms
[2]
  effect on QT interval compared to normal ECG (in words): increased at both 0.3 μM and 1 μM

## O=C(N1CCS(=O)(=O)CC1)N(Cc1ccc(-c2nnc(C(F)F)o2)cn1)c1ccccc1 [compound 43, N-((5-(5-(difluoromethyl)-1,3,4-oxadiazol-2-yl)pyridin-2-yl)methyl)-N-phenylthiomorpholine-4-carboxamide 1,1-dioxide]
[3]
  expression of acetylated tubulin in atria and ventricles: restored to that of the normal group (Sham)
[1]
  concentration of acetyl tubulin in H9c2 cells: increase the concentration of acetyl tubulin in H9c2 cells in a concentration-correlated manner
Isolated rabbit heart; 1 μM in physiological solution, ECG one hour later, after 50 Hz tachycardia pacing for 30 minutes
  R-R interval, Average: 240.8 ms
Isolated rabbit heart; 1 μM, tachycardia pacing (FIG. 3)
  electrocardiogram (ventricular functions): improved to a degree of the normal group (Control)
Isolated rabbit heart; after wash out of 1 μM compound (FIG. 3)
  cardioversion effect after the compound is removed: maintained for at least one hour
Isolated rabbit heart; one hour after compound washed out of physiological solution, after 50 Hz tachycardia pacing
  R-R interval, Average, Wash out: 239.9 ms
[4]
  Ca2+ transients: Ca^2+ transients are recovered
[2]; 1 μM
  Q-T interval: 125.4 ± 1.7 ms
[2]
  effect on QT interval compared to normal ECG (in words): not affected
[5]
  expression of TGF-β in cardiac tissue: reduced expression
  expression of α-SMA in cardiac tissue: reduced expression
